Earlier results on one compound are cited in PubChem BioAssay AID1259409 (Chemical Carcinogenesis Research Information System (CCRIS), 2018).

In this data set the test system is rodent chemically induced tumor inhibition, incidence and multiplicity. Put plainly: CCRIS tumor inhibitor studies.

With `NCCCC(N)(C(=O)O)C(F)F` (centres undefined), the “tumour outcome (control, treated, inhibition, significance)” value by setting is: (Carcinogen: N-ETHYL-N-NITROSOUREA, 759-73-9, Dose [Inhibitor]: 0, 500 MG/KG DIET FOR DURATION OF STUDY BEGINNING POST CARCINOGEN DOSE (STUDY DURATION: 35 WK), Route [Inhibitor]: ORAL, Species: MOUSE, Strain/Sex: PIM/MALE, Target Tissue: Type of Lesion: LYMPHATIC SYSTEM: LYMPHOMA, Dose [Carcinogen]: 50 MG/KG BW ONCE, Promoter: NONE USED) 21/40 (53%), 9/28 (32%), 40%, not significant; (Carcinogen: N-ETHYL-N-NITROSOUREA, 759-73-9, Dose [Inhibitor]: 0, 1000 MG/KG DIET FOR DURATION OF STUDY BEGINNING POST CARCINOGEN DOSE (STUDY DURATION: 35 WK), Route [Inhibitor]: ORAL, Species: MOUSE, Strain/Sex: PIM/MALE, Target Tissue: Type of Lesion: LYMPHATIC SYSTEM: LYMPHOMA, Dose [Carcinogen]: 50 MG/KG BW ONCE, Promoter: NONE USED) 21/40 (53%), 16/40 (40%), 26%, not significant; (Carcinogen: N-METHYL-N'-NITRO-N-NITROSOGUANIDINE, 70-25-7, Dose [Inhibitor]: 0, 0.5% IN DRINKING WATER ADMINISTERED CONCURRENTLY WITH CARCINOGEN FOR 35 WK (STUDY DURATION: 85 WK), Route [Inhibitor]: ORAL, Species: RAT, Strain/Sex: WISTAR/MALE, Target Tissue: Type of Lesion: DUODENUM: TUMOR, Dose [Carcinogen]: 2.5 MG IN DRINKING WATER FOR 35 WK, Promoter: NONE USED) 4/22 (18%), 9/25 (36%), -100%, not significant; (Carcinogen: N-METHYL-N'-NITRO-N-NITROSOGUANIDINE, 70-25-7, Dose [Inhibitor]: 0, 0.5% IN DRINKING WATER ADMINISTERED CONCURRENTLY WITH CARCINOGEN FOR 35 WK (STUDY DURATION: 85 WK), Route [Inhibitor]: ORAL, Species: RAT, Strain/Sex: WISTAR/MALE, Target Tissue: Type of Lesion: STOMACH: ADENOCARCINOMA, Dose [Carcinogen]: 2.5 MG IN DRINKING WATER FOR 35 WK, Promoter: NONE USED) 12/22 (55%), 3/25 (12%), 78%, p<0.005; (Carcinogen: N-METHYL-N'-NITRO-N-NITROSOGUANIDINE, 70-25-7, Dose [Inhibitor]: 0, 0.5% IN DRINKING WATER ADMINISTERED CONCURRENTLY WITH CARCINOGEN FOR 35 WK (STUDY DURATION: 85 WK), Route [Inhibitor]: ORAL, Species: RAT, Strain/Sex: WISTAR/MALE, Target Tissue: Type of Lesion: STOMACH: ADENOMA, Dose [Carcinogen]: 2.5 MG IN DRINKING WATER FOR 35 WK, Promoter: NONE USED) 5/22 (23%), 4/25 (16%), 30%, not significant; (Carcinogen: N-METHYL-N'-NITRO-N-NITROSOGUANIDINE, 70-25-7, Dose [Inhibitor]: 0, 0.5% IN DRINKING WATER ADMINISTERED CONCURRENTLY WITH CARCINOGEN FOR 35 WK (STUDY DURATION: 85 WK), Route [Inhibitor]: ORAL, Species: RAT, Strain/Sex: WISTAR/MALE, Target Tissue: Type of Lesion: STOMACH: SARCOMA, Dose [Carcinogen]: 2.5 MG IN DRINKING WATER FOR 35 WK, Promoter: NONE USED) 2/22 (9%), 0/25 (0%), 100%, not significant. For the same compound, the “tumour outcome (control, treated, inhibition, significance)” value is listed as 4/22 (18%), 9/25 (36%), -100%, not significant (Carcinogen: N-METHYL-N'-NITRO-N-NITROSOGUANIDINE, 70-25-7, Dose [Inhibitor]: 0, 1% IN DRINKING WATER ADMINISTERED CONCURRENTLY WITH CARCINOGEN FOR 35 WK (STUDY DURATION: 85 WK), Route [Inhibitor]: ORAL, Species: RAT, Strain/Sex: WISTAR/MALE, Target Tissue: Type of Lesion: DUODENUM: TUMOR, Dose [Carcinogen]: 2.5 MG IN DRINKING WATER FOR 35 WK, Promoter: NONE USED); 12/22 (55%), 5/25 (20%), 64%, p<0.05 (Carcinogen: N-METHYL-N'-NITRO-N-NITROSOGUANIDINE, 70-25-7, Dose [Inhibitor]: 0, 1% IN DRINKING WATER ADMINISTERED CONCURRENTLY WITH CARCINOGEN FOR 35 WK (STUDY DURATION: 85 WK), Route [Inhibitor]: ORAL, Species: RAT, Strain/Sex: WISTAR/MALE, Target Tissue: Type of Lesion: STOMACH: ADENOCARCINOMA, Dose [Carcinogen]: 2.5 MG IN DRINKING WATER FOR 35 WK, Promoter: NONE USED); 5/22 (23%), 3/25 (12%), 48%, not significant (Carcinogen: N-METHYL-N'-NITRO-N-NITROSOGUANIDINE, 70-25-7, Dose [Inhibitor]: 0, 1% IN DRINKING WATER ADMINISTERED CONCURRENTLY WITH CARCINOGEN FOR 35 WK (STUDY DURATION: 85 WK), Route [Inhibitor]: ORAL, Species: RAT, Strain/Sex: WISTAR/MALE, Target Tissue: Type of Lesion: STOMACH: ADENOMA, Dose [Carcinogen]: 2.5 MG IN DRINKING WATER FOR 35 WK, Promoter: NONE USED); 2/22 (9%), 3/25 (12%), -33%, not significant (Carcinogen: N-METHYL-N'-NITRO-N-NITROSOGUANIDINE, 70-25-7, Dose [Inhibitor]: 0, 1% IN DRINKING WATER ADMINISTERED CONCURRENTLY WITH CARCINOGEN FOR 35 WK (STUDY DURATION: 85 WK), Route [Inhibitor]: ORAL, Species: RAT, Strain/Sex: WISTAR/MALE, Target Tissue: Type of Lesion: STOMACH: SARCOMA, Dose [Carcinogen]: 2.5 MG IN DRINKING WATER FOR 35 WK, Promoter: NONE USED); 89% (8/9), 10% (2/20), 89%, p<0.0001 (Carcinogen: N-METHYL-N-BENZYLNITROSAMINE, 937-40-6, Dose [Inhibitor]: 0, 1% IN DEIONIZED WATER WITH ZINC-DEFICIENT DIET FOR 15 WK STARTING 1 HR POST CARCINOGEN TREATMENT (STUDY DURATION: 20, Route [Inhibitor]: ORAL, Species: RAT, Strain/Sex: SPRAGUE-DAWLEY/MALE, Target Tissue: Type of Lesion: ESOPHAGUS: TUMOR, Dose [Carcinogen]: 2 MG/KG BW ONCE ADMINISTERED AFTER 5 WK OF ZINC-DEFICIENT DIET TREATMENT); 31/38 (82%), 5/37 (16%), 80%, p<0.001 (Carcinogen: N-METHYL-N-NITROSOUREA, 684-93-5, Dose [Inhibitor]: 0, 0.5 IN 2% NORMAL URINE INTO HETEROTOPICALLY TRANSPLANTED BLADDER 2/WK FOR 22 WK BEGINNING 1 WK POST CARCINOGEN (STUDY, Route [Inhibitor]: INJECTION, Species: RAT, Strain/Sex: F344/MALE, Target Tissue: Type of Lesion: BLADDER: TRANSITIONAL CELL CARCINOMA, Dose [Carcinogen]: 0.25 MG IN 0.9% SALINE 1/WK FOR 3 WK INTO BLADDER 4 WK AFTER HETEROTOPIC TRANSPLANT INTO GLUTEAL MUSCLE). Moreover, the “tumour outcome (control, treated, inhibition, significance)” value by setting is: (Carcinogen: N-METHYL-N-NITROSOUREA, 684-93-5, Dose [Inhibitor]: 0, 0.5 IN 2% NORMAL URINE INTO HETEROTOPICALLY TRANSPLANTED BLADDER 2/WK FOR 29 WK BEGINNING 1 WK POST CARCINOGEN (STUDY, Route [Inhibitor]: INJECTION, Species: RAT, Strain/Sex: F344/MALE, Target Tissue: Type of Lesion: BLADDER: TRANSITIONAL CELL CARCINOMA, Dose [Carcinogen]: 0.25 MG IN 0.9% SALINE ONCE INTO BLADDER 4 WK AFTER HETEROTOPIC TRANSPLANT INTO GLUTEAL MUSCLE) 15/35 (43%), 3/34 (9%), 79%, p<0.005; (Carcinogen: N-METHYL-N-NITROSOUREA, 684-93-5, Dose [Inhibitor]: 0.5 ML OF 2% AGENT IN 0.9% SALINE SOLUTION TWICE IN WK 1 THEN ONCE 2 HR POST CARCINOGEN DOSE THEN TWICE IN WEEK 2 (STUDY, Route [Inhibitor]: INTRAVESICAL, Species: RAT, Strain/Sex: F344/MALE, Target Tissue: Type of Lesion: BLADDER: CARCINOMA, Dose [Carcinogen]: 0.25 MG IN 0.5 ML OF 0.9% SALINE SOLUTION ONCE, Promoter: URINE) 25/36 (69%), 25/37 (68%), 1%, not calculated.
